We go through 18 molecules from patent US9321764B2, “Dihydro-pyrrolopyridinone inhibitors” (AbbVie Inc., priority 2013, dated 2016).

The target of one assay is T1, BRD4 (BDI_K57-E168) (Homo sapiens, UniProt O60885).
T1 construct: BD1: amino acids K57-E168; made in house
Briefly: TR-FRET bromodomain binding assay, first bromodomain of BRD4. Conditions: His-tagged BD1, 100 nM Alexa647 probe; TR-FRET protocol A-E given per row. The method in brief: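 Ki values come from IC50s (4-parameter logistic) corrected for probe Kd and concentration, normalised to no-compound and 1 μM unlabelled probe controls. Probe displacement by TR-FRET used 8 nM BD1 (K57-E168), 100 nM Alexa647 probe, 1 nM Eu-anti-His, 20 mM phosphate pH 6.0, 2% DMSO, 1 h, room temperature.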

The next assay has as its target T2, BRD4 (BDII_E352-M457) (Homo sapiens, UniProt O60885).
T2 construct: proliferation; Protocol; made in house
The assay is described as follows: TR-FRET bromodomain binding assay, second bromodomain of BRD4. Conditions: His-tagged BD2, 30 nM Alexa647 probe; TR-FRET protocol A-E given per row. The method in brief: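 His-tagged BRD4 BD2 ([…]) competed against an Alexa647-labelled BET-inhibitor probe in TR-FRET. Buffer was 20 mM sodium phosphate pH 6.0, 50 mM NaCl, 1 mM EDTA, 0.01% Triton X-100, 1 mM DTT, with method D DMSO series of 2.5 mM–800 nM (stock range). IC50 from 4-parameter fit, Ki from probe Kd and concentration.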
On the technique in general: Time-resolved FRET reads energy transfer from a long-lived donor to a nearby acceptor.

Assay [1] concerns breast cancer cell line MX-1. Briefly: MX-1 cell line proliferation assay. The format is cell-based. Conditions: Homo sapiens, MX1, 72 h, MX-1 cells, 3-day proliferation assay, Cell Titer Glo; read-out: Cellular proliferation EC50. On the procedure:
The impact of compounds of the Examples on cancer cell proliferation was determined using the breast cancer cell line MX-1 (ATCC) in a 3-day proliferation assay and the data are reported in Table 1. MX-1 cells were maintained in RPMI 1640 medium (Sigma) supplemented with 10% FBS at 37° C. and an atmosphere of 5% CO2. For compound testing, MX-1 cells were plated in 96-well black bottom plates at a density of 5000 cells/well in 90 μL of culture media and incubated at 37° overnight to allow cell adhesion and spreading. Compound dilution series were prepared in DMSO via a 3-fold serial dilution from 3 mM to 0.1 μM. The DMSO dilution series were then diluted 1:100 in phosphate buffered saline, and 10 μL of the resulted solution were added to the appropriate wells of the MX-1 cell plate. The final compound concentrations in the wells were 3, 1, 0.3, 0.1, 0.03, 0.01, 0.003, 0.001, 0.0003 and 0.0001 μM.
Luminescence readings from the Cell Titer Glo assay were normalized to the DMSO treated cells and analyzed using the GraphPad Prism software with sigmoidal curve fitting to obtain EC50s. The minimum significant ratio (MSR) was determined to evaluate assay reproducibility (Eastwood et al., (2006) J Biomol Screen, 11: 253-261).
On the technique in general: Cellular ATP, detected with luciferase, serves as a proxy for viable cell number.

Regarding `Cc1ccc(CS(=O)(=O)NCc2ccc(Oc3ccc(F)cc3F)c(-c3cn(C)c4c(=O)[nH]ccc34)c2)cc1` [Example 132, N-[4-(2,4-difluorophenoxy)-3-(1-methyl-7-oxo-6,7-dihydro-1H-pyrrolo[2,3-c]pyridin-3-yl)benzyl]-1-(4-methylphenyl)methanesulfonamide], the values for the inhibitory constant (Ki) at BRD4 (BDI_K57-E168) and on BRD4 (BDII_E352-M457) were 249 nM and 1240 nM, respectively. Besides, the EC50 in assay [1] was found to be 658 nM.
Take `CC(=O)N1CCC(Oc2ccc(S(C)(=O)=O)cc2-c2cn(C)c3c(=O)[nH]ccc23)CC1` [Example 67, 3-{2-[(1-acetylpiperidin-4-yl)oxy]-5-(methylsulfonyl)phenyl}-1-methyl-1,6-dihydro-7H-pyrrolo[2,3-c]pyridin-7-one]: the values for the inhibition constant Ki on BRD4 (BDI_K57-E168) and on BRD4 (BDII_E352-M457) were 45 nM and 1380 nM, respectively. Also, the EC50 in assay [1] was more than 3000 nM.
With `Cn1cc(-c2cc(CNCc3c[nH]cn3)ccc2Oc2ccc(F)cc2F)c2cc[nH]c(=O)c21` [Example 119, 3-[2-(2,4-difluorophenoxy)-5-{[(1H-imidazol-4-ylmethyl)amino]methyl}phenyl]-1-methyl-1,6-dihydro-7H-pyrrolo[2,3-c]pyridin-7-one], the Ki at BRD4 (BDI_K57-E168) is 599 nM; at BRD4 (BDII_E352-M457), 478 nM. Besides, the EC50 in assay [1] was more than 3000 nM.
For `Cn1cc(-c2cc(S(C)(=O)=O)ccc2Oc2ccc(F)c(F)c2)c2cc[nH]c(=O)c21` [Example 19, 3-[2-(3,4-difluorophenoxy)-5-(methylsulfonyl)phenyl]-1-methyl-1,6-dihydro-7H-pyrrolo[2,3-c]pyridin-7-one], the inhibition constant Ki at BRD4 (BDI_K57-E168) amounted to 16 nM; at BRD4 (BDII_E352-M457), 80 nM. Besides, in assay [1], the EC50 amounted to 176 nM.
As for `Cn1cc(-c2cc(S(=O)(=O)N3CCc4ccccc43)ccc2OCC2CC2)c2cc[nH]c(=O)c21` [Example 97, 3-[2-(cyclopropylmethoxy)-5-(2,3-dihydro-1H-indol-1-ylsulfonyl)phenyl]-1-methyl-1,6-dihydro-7H-pyrrolo[2,3-c]pyridin-7-one], the Ki came to 158 nM on BRD4 (BDI_K57-E168) and 81 nM on BRD4 (BDII_E352-M457). In addition, the EC50 in assay [1] worked out at 398 nM.
As to `Cn1cc(-c2cc(CS(=O)(=O)c3ccccc3)ccc2Oc2ccc(F)cc2F)c2cc[nH]c(=O)c21` [Example 58, 3-{2-(2,4-difluorophenoxy)-5-[(phenylsulfonyl)methyl]phenyl}-1-methyl-1,6-dihydro-7H-pyrrolo[2,3-c]pyridin-7-one], the inhibition constant (Ki) at BRD4 (BDI_K57-E168) worked out at 72 nM; on BRD4 (BDII_E352-M457) it was 88 nM. Besides, the EC50 in assay [1] amounted to 57 nM.
As to `Cn1cc(-c2cc(S(C)(=O)=O)ccc2OCC2CCOC2)c2cc[nH]c(=O)c21` (stereo not drawn) [Example 23, 1-methyl-3-[5-(methylsulfonyl)-2-(tetrahydrofuran-3-ylmethoxy)phenyl]-1,6-dihydro-7H-pyrrolo[2,3-c]pyridin-7-one], the results for the inhibition constant Ki at BRD4 (BDI_K57-E168) and at BRD4 (BDII_E352-M457) were 13 nM and 117 nM, respectively. For the same molecule, the EC50 in assay [1] was determined as 256 nM.
For the molecule `CCS(=O)(=O)Nc1ccc(Oc2ccc(F)cc2F)c(-c2cn(C)c3c(=O)[nH]c(C4CCN(S(=O)(=O)CC)CC4)cc23)c1` [Example 186, N-[4-(2,4-difluorophenoxy)-3-{5-[1-(ethylsulfonyl)piperidin-4-yl]-1-methyl-7-oxo-6,7-dihydro-1H-pyrrolo[2,3-c]pyridin-3-yl}phenyl]ethanesulfonamide], the Ki on BRD4 (BDI_K57-E168) came to 0.38 nM; at BRD4 (BDII_E352-M457), 0.82 nM. Besides, in assay [1], the EC50 was found to be 13.4 nM.
As for `Cn1cc(-c2cc(S(C)(=O)=O)ccc2OCC2(C)CC2)c2cc[nH]c(=O)c21` [Example 29, 1-methyl-3-{2-[(1-methylcyclopropyl)methoxy]-5-(methylsulfonyl)phenyl}-1,6-dihydro-7H-pyrrolo[2,3-c]pyridin-7-one], the values for the Ki on BRD4 (BDI_K57-E168) and on BRD4 (BDII_E352-M457) were 12 nM and 89 nM, respectively. For the same molecule, the EC50 in assay [1] is 191 nM.
`Cn1cc(-c2cc(S(C)(=O)=O)ccc2Oc2ccc3ccccc3c2)c2cc[nH]c(=O)c21` [Example 63, 1-methyl-3-[5-(methylsulfonyl)-2-(naphthalen-2-yloxy)phenyl]-1,6-dihydro-7H-pyrrolo[2,3-c]pyridin-7-one]: the Ki at BRD4 (BDI_K57-E168) was found to be 74 nM; on BRD4 (BDII_E352-M457), 66 nM. The EC50 in assay [1] amounted to 187 nM.
`CCS(=O)(=O)c1ccc(Oc2ccc(C#N)cc2)c(-c2cn(C)c3c(=O)[nH]ccc23)c1` [Example 78, 4-[4-(ethylsulfonyl)-2-(1-methyl-7-oxo-6,7-dihydro-1H-pyrrolo[2,3-c]pyridin-3-yl)phenoxy]benzonitrile]: the Ki on BRD4 (BDI_K57-E168) was 20 nM; on BRD4 (BDII_E352-M457), 73 nM. Besides, the EC50 in assay [1] stood at 88 nM.
Regarding `CN(CC1CC1)c1ccc(S(C)(=O)=O)cc1-c1cn(C)c2c(=O)[nH]ccc12` [Example 45, 3-{2-[(cyclopropylmethyl)(methyl)amino]-5-(methylsulfonyl)phenyl}-1-methyl-1,6-dihydro-7H-pyrrolo[2,3-c]pyridin-7-one], the inhibitory constant (Ki) was 37 nM on BRD4 (BDI_K57-E168) and 70 nM at BRD4 (BDII_E352-M457). Further, in assay [1], the EC50 is 279 nM.
In the case of `CC(C)S(=O)(=O)Nc1ccc(Oc2ccc(F)cc2F)c(-c2cn(C)c3c(=O)[nH]ccc23)c1` [Example 3, N-[4-(2,4-difluorophenoxy)-3-(1-methyl-7-oxo-6,7-dihydro-1H-pyrrolo[2,3-c]pyridin-3-yl)phenyl]propane-2-sulfonamide], the Ki on BRD4 (BDI_K57-E168) stood at 26 nM; at BRD4 (BDII_E352-M457), 43 nM. Besides, the EC50 in assay [1] was found to be 161 nM.
On the same counts, the results for `Cn1cc(-c2cc(CS(C)(=O)=O)ccc2Nc2ccc(F)cc2F)c2cc[nH]c(=O)c21` [Example 122, 3-{2-[(2,4-difluorophenyl)amino]-5-[(methylsulfonyl)methyl]phenyl}-1-methyl-1,6-dihydro-7H-pyrrolo[2,3-c]pyridin-7-one] are 25 nM, 55 nM and 44 nM.
As to `Cc1cccnc1CNc1ccc(Oc2ccc(F)cc2F)c(-c2cn(C)c3c(=O)[nH]ccc23)c1` [Example 169, 3-[2-(2,4-difluorophenoxy)-5-{[(3-methylpyridin-2-yl)methyl]amino}phenyl]-1-methyl-1,6-dihydro-7H-pyrrolo[2,3-c]pyridin-7-one], the inhibition constant (Ki) on BRD4 (BDI_K57-E168) amounted to 26.5 nM; on BRD4 (BDII_E352-M457), 107 nM. The EC50 in assay [1] was 132 nM.
The matching figures for `Cn1cc(-c2cc(NCc3ccccc3C#N)ccc2Oc2ccc(F)cc2F)c2cc[nH]c(=O)c21` [Example 178, 2-({[4-(2,4-difluorophenoxy)-3-(1-methyl-7-oxo-6,7-dihydro-1H-pyrrolo[2,3-c]pyridin-3-yl)phenyl]amino}methyl)benzonitrile]: 30.8 nM, 239 nM and 233 nM.
As for `CCS(=O)(=O)c1ccc(Oc2ccc(F)cc2F)c(-c2cn(C)c3c(=O)[nH]c(/C=C(\Cl)CCO)cc23)c1` [Example 126, 5-[(1Z)-2-chloro-4-hydroxybut-1-en-1-yl]-3-[2-(2,4-difluorophenoxy)-5-(ethylsulfonyl)phenyl]-1-methyl-1,6-dihydro-7H-pyrrolo[2,3-c]pyridin-7-one], the inhibitory constant (Ki) on BRD4 (BDI_K57-E168) amounted to 8.3 nM; on BRD4 (BDII_E352-M457), 5.7 nM. The EC50 in assay [1] was 81.9 nM.
On the same counts, the results for `CN(C)S(=O)(=O)Cc1ccc(Oc2ccc(F)cc2F)c(-c2cn(C)c3c(=O)[nH]ccc23)c1` [Example 101, 1-[4-(2,4-difluorophenoxy)-3-(1-methyl-7-oxo-6,7-dihydro-1H-pyrrolo[2,3-c]pyridin-3-yl)phenyl]-N,N-dimethylmethanesulfonamide] are 2.2 nM, 2.5 nM and 5 nM.

The Ki is a dissociation constant, usually derived from enzyme kinetics or from competition with a known ligand. A higher Ki goes with a looser hold on the target.
